Reference: PMC4995097, “Talin-KANK1 interaction controls the recruitment of cortical microtubule stabilizing complexes to focal adhesions” (eLife, 2016)

How the values were obtained:
[1] = tested on: GFP-talin1; assay: Streptavidin pull down of BioGFP-KANK1 constructs with GFP-talin1, Western blot; format: binding, mouse; settings: 4A mutation introduced into the construct; HEK293T cells, Figure 3A
Description: BioGFP-tagged KANK1 mutants were constructed using PCR and pBioGFP-C1 vector as previously described ([van der Vaart et al., 2013]). Rescue constructs for BioGFP-tagged KANK1 were either based on the version previously described ([van der Vaart et al., 2013]) or a version obtained by PCR-based mutagenesis of the sequence […] to […]. mCherry-tagged paxillin construct was made by replacing GFP from pQC-GPXN ([Bouchet et al., 2011]) by mCherry (pmCherry-C1, Clontech). TagRFP-tagged paxillin construct was made by PCR-based amplification and cloning in pTagRFP-T-C1 (kind gift from Y. Mimori-Kiyosue, Riken Institute, Japan). HA-tagged KANK1 construct was generated by cloning KANK1 coding sequence into pMT2-SM-HA (gift of C. Hoogenraad, Utrecht University, The Netherlands). pLVX-IRES-Neo (pLVIN) vectors was constructed by cloning the IRES-neomycin resistance cassette from the pQCXIN plasmid (Clontech) into the pLVX-IRES-Puro plasmid (Clontech). […]
Streptavidin-based pull down assays of biotinylated proteins expressed using pBioGFP-C1 constructs transfected in HEK293T cells was performed and analyzed as previously described ([van der Vaart et al., 2013]). […] For RP-nanoLC-MS/MS, samples were resuspended in 10% formic acid (FA) / 5% DMSO and was analyzed using a Proxeon Easy-nLC100 (Thermo Scientific) connected to an Orbitrap Q-Exactive mass spectrometer. […]

[2] = tested on: focal adhesions in HeLa cells; assay: TIRFM localization of GFP-tagged KANK1 constructs relative to focal adhesions; format: cell-based, human; settings: live HeLa cells with mCherry- or TagRFP-paxillin
Protocol: HeLa Kyoto cell line was described previously ([Lansbergen et al., 2006]; [Mimori-Kiyosue et al., 2005]). HEK293T cells were purchased from ATCC; culture and transfection of DNA and siRNA into these cell lines was performed as previously described ([van der Vaart et al., 2013]). HaCaT cells were purchased at Cell Line Service (Eppelheim, Germany) and cultured according to manufacturer’s instructions. The cell lines were routinely checked for mycoplasma contamination using LT07-518 Mycoalert assay (Lonza, Switzerland).The identity of the cell lines was monitored by immunofluorescence-staining-based analysis with multiple markers. Blebbistatin was purchased from Enzo Life Sciences and used at 50 μM. Serum starvation in HeLa cells was done for 48 hr and focal adhesion assembly was stimulated by incubation with fetal calf serum-containing medium with or without blebbistatin for 2 hr. ROCK1 inhibitor Y-27632 was purchased at Sigma-Aldrich and used at 1 or 10 μM. Double stable HeLa cell line expressing GFP-KANK1 and TagRFP-paxillin was made by viral infection. We used a pLVIN-TagRFP-paxillin-based lentivirus and a pQC-GFP-KANK1-based retrovirus packaged in HEK293T cells using respectively Lenti-X HTX packaging and pCL-Ampho vectors. Antibiotic selection was applied to cells 48 hr after infection using 500 μg/ml G418 (Geneticin, Life Technologies) and 1 μg/ml puromycin (InvivoGen). […]

Question: How did the “effect of 4A mutation on interaction with talin1 (in words)” value [1] turn out when “KN domain: GFP-tagged KN domain of KANK1 (residues 30–68)” was run?
Answer: The value was “An even stronger reduction was observed”.

Question: And the “localization relative to FAs, endogenous KANK1/2 present (in words)” value [2]?
Answer: Its value is “strongly and specifically accumulated within FAs”.
